Activity calls are given as the source filed them. The rule behind the calls is not given here.
What was measured:
[1] = test system: Huh-7; assay: Cytotoxicity against human HuH7 cells assessed as reduction in cell viability measured after 48 to 72 hrs by MTT assay; format: functional, cell-based
[2] = test system: Huh-7; assay: Cytotoxicity against human HuH7 cells assessed as reduction in cell viability measured after 24 hrs by MTT assay; format: functional, cell-based; details: Huh-7, 24 h
[3] = test system: Huh-7; assay: Cytotoxicity against human HuH7 cells expressing positive EpCAM/CD133 assessed as reduction in cell viability measured after 24 hrs by MTT assay; format: functional, cell-based; details: Huh-7, 24 h
[4] = molecular target: Histone deacetylase 1 (Homo sapiens) (UniProt Q13547); assay: Inhibition of human recombinant HDAC1 using FLUOR DE LYS SIRT1, deacetylase as substrate preincubated for 2 mins followed by substrate addition measured after 1 hr by fluorescence assay
Sequence of Histone deacetylase 1 (Homo sapiens) (Q13547 whole entry): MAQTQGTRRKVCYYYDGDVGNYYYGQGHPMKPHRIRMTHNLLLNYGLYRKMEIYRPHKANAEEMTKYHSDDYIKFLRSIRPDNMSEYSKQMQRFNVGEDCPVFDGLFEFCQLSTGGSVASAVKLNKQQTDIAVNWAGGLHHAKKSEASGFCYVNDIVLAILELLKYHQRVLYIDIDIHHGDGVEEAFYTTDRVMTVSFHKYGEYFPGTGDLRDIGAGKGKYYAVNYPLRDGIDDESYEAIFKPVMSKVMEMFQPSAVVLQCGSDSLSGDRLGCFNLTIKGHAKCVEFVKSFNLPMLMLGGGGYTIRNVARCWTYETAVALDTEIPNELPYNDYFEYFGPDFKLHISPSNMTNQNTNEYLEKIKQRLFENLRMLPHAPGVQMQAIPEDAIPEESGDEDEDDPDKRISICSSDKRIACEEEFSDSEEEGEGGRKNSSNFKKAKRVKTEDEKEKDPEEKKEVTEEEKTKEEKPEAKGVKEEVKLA

[5] = test system: Huh-7; assay: Cytotoxicity against human HuH7 cells expressing positive EpCAM/CD133 assessed as reduction in cell viability measured after 72 hrs by MTT assay; format: functional, cell-based; details: Huh-7, 72 h
[6] = test system: Huh-7; assay: Cell cycle arrest in human HuH7 cells assessed as increase in accumulation at G1 phase at 1 to 1.25 uM measured after 48 hrs by propidium iodide staining based flow cytometry analysis; format: functional
[7] = test system: Huh-7; assay: Cell cycle arrest in human HuH7 positive EpCAM/CD133 cells assessed as increase in accumulation at G1 phase at 1 to 1.25 uM measured after 48 hrs by propidium iodide staining based flow cytometry analysis; format: functional
[8] = test system: Huh-7; assay: Induction of apoptosis in human HuH7 cells assessed as increase in early apoptotic cells at 10 uM measured after 48 hrs by Annexin V-FITC/propidium iodide staining based flow cytometry analysis; format: functional, cell-based
[9] = test system: Huh-7; assay: Induction of apoptosis in human HuH7 positive EpCAM/CD133 cells measured after 48 hrs by Annexin V-FITC/propidium iodide staining based flow cytometry analysis; format: functional, cell-based
[10] = test system: Huh-7; assay: Upregulation of p21 expression in human HuH7 cells at 1 to 3 uM measured after 24 to 72 hrs by SYBR-green based qPCR analysis; format: functional, cell-based
[11] = test system: Huh-7; assay: Upregulation of p27 expression in human HuH7 cells at 1 to 3 uM measured after 24 to 72 hrs by SYBR-green based qPCR analysis; format: functional, cell-based
[12] = test system: Huh-7; assay: Upregulation of p21 expression in human HuH7 cells expressing positive EpCAM/CD133 at 1 to 3 uM measured after 72 hrs by SYBR-green based qPCR analysis; format: functional, cell-based
[13] = test system: Huh-7; assay: Induction of apoptosis in human HuH7 cells assessed as change in cell morphology at 0.1 to 10 uM measured after 48 hrs by 2D microscopic analysis; format: functional, cell-based
[14] = test system: Huh-7; assay: Induction of apoptosis in human HuH7 cells expressing positive EpCAM/CD133 assessed as change in cell morphology at 0.1 to 10 uM measured after 48 hrs by 2D microscopic analysis; format: functional, cell-based
[15] = test system: Huh-7; assay: Induction of apoptosis in human HuH7 cells expressing positive EpCAM/CD133 assessed as loss of spheroid morphology at 62.5 uM measured after 48 hrs by inverted light microscopy based matrigel assay; format: functional, cell-based
[16] = molecular target: T1, NAD-dependent protein deacetylase sirtuin-1 (Homo sapiens) (UniProt Q96EB6); assay: Inhibition of human recombinant SIRT1 using FLUOR DE LYS SIRT1, deacetylase as substrate preincubated for 2 mins followed by substrate addition measured after 1 hr in presence of NAD+ by fluorescence assay
T1 sequence (whole entry): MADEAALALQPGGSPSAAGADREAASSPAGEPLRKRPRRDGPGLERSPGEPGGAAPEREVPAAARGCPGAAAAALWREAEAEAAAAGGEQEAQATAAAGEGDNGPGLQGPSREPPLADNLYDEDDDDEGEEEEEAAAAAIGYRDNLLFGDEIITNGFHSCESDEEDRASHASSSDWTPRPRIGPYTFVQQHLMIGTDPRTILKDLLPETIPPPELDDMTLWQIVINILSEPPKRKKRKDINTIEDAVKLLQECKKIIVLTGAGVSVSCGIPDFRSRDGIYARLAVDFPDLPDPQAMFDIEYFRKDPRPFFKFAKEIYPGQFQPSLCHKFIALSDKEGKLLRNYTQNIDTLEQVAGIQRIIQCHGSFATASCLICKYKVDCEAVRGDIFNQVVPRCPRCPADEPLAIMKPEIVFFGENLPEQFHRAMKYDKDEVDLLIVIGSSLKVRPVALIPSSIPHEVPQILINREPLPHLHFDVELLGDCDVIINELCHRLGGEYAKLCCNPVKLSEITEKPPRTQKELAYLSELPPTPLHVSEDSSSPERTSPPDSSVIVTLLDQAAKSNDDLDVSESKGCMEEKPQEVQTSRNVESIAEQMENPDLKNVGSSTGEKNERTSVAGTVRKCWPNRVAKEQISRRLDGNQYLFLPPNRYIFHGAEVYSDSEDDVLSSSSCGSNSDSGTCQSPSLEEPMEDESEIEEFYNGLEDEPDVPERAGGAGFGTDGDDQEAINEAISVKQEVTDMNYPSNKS

[17] = organism: Homo sapiens; assay: Inhibition of Sirtuin/HDAC in human HUH7 cells assessed as decrease in enzymatic activity at 0.10 to 5 uM measured after 24 hrs relative to control; format: cell-based
[18] = organism: Homo sapiens; assay: Inhibition of Sirtuin/HDAC in human HUH7 cells assessed as decrease in cell viability measured after 24 hrs; format: cell-based
[19] = organism: Homo sapiens; assay: Inhibition of class 1/2 HDAC in human HuH7 nuclear extract at 0.1 to 81 uM after 24 hrs by fluorescence based assay
[20] = test system: Huh-7; assay: Induction of reactive oxygen species generation in human HuH7 cells at 1 uM measured after 24 hrs by DCFDA staining assay; format: functional, cell-based
[21] = test system: Huh-7; assay: Upregulation of SIRT1 in human HuH7 cells measured after 24 hrs by ELISA; format: functional, cell-based
[22] = test system: Huh-7; assay: Cytotoxicity against human HuH7 cells assessed as effect on SIRT1 protein level at 5 uM measured after 24 hrs by ELISA; format: functional, cell-based
[23] = test system: Huh-7; assay: Upregulation of SIRT1 in human HuH7 cells assessed as fold change at 5 uM measured after 24 hrs by ELISA relative to control; format: functional
[24] = molecular target: Exportin-1 (Homo sapiens) (UniProt O14980); assay: Inhibition of CRM1 in human HepG2 cells assessed as accumulation of RIOK2 in nucleus at 1 and 10 uM measured after 24 hrs by DAPI staining based confocal microscopy analysis; format: cell-based
Sequence of Exportin-1 (Homo sapiens) (O14980 whole entry): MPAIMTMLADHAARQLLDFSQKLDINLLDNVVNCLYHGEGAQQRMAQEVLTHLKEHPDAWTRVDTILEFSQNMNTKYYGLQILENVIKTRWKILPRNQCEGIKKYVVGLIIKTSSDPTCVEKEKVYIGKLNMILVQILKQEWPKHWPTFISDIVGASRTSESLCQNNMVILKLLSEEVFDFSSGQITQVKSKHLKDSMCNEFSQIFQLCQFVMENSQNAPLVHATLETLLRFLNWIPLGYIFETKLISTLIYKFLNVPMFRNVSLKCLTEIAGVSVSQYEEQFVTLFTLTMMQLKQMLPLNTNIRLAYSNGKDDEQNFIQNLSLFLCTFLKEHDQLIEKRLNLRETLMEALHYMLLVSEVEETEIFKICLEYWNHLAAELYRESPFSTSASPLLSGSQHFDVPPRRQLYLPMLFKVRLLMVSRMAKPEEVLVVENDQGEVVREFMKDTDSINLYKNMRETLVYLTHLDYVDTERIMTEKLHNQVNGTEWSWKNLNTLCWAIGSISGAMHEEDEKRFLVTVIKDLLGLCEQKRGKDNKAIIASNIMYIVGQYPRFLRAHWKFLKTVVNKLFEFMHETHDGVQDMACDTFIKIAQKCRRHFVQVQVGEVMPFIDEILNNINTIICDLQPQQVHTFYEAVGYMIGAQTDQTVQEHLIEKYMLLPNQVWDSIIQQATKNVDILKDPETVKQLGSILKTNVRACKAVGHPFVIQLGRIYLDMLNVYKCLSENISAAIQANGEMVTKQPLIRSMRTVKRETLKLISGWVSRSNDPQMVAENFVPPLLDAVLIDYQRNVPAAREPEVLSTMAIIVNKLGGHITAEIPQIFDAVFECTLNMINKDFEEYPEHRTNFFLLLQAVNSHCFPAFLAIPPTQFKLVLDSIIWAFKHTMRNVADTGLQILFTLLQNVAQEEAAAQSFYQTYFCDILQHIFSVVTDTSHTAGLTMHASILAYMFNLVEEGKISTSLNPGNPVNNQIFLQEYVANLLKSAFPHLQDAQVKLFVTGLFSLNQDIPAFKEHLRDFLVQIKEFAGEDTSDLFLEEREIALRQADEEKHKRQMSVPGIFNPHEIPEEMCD

[25] = molecular target: Exportin-1 (Homo sapiens) (UniProt O14980); assay: Inhibition of CRM1 in human HepG2 cells assessed as accumulation of RIOK2 in nucleus at 0.1 to 10 uM measured after 6 hrs by DAPI staining based confocal microscopy analysis; format: cell-based
[26] = molecular target: Histone-lysine N-methyltransferase EZH2 (Homo sapiens) (UniProt Q15910); assay: Activation of EZH2 in human HuH7 cells assessed as upregulation of H3K27me3 expression measured after 4 hrs by Western blot analysis; format: cell-based
Sequence of Histone-lysine N-methyltransferase EZH2 (Homo sapiens) (Q15910 whole entry, looked up): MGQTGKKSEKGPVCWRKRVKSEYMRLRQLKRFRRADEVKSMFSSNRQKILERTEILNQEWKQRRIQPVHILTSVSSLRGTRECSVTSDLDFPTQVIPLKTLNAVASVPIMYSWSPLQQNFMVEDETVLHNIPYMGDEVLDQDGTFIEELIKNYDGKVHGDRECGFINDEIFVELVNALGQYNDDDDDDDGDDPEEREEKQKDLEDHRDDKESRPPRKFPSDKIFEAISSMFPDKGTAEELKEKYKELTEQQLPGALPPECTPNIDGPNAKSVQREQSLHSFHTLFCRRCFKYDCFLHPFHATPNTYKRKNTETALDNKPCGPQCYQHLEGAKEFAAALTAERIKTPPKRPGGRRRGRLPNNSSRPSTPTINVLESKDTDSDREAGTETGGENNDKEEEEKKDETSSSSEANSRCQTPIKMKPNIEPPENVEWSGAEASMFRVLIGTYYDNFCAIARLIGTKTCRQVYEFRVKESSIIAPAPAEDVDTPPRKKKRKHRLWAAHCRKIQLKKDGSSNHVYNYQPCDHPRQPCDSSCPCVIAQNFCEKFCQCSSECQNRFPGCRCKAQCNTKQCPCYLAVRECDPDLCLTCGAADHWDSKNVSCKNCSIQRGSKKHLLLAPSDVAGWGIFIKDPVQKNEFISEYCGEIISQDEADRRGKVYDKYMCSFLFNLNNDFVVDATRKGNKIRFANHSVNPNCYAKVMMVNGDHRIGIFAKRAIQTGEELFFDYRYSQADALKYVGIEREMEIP

[27] = test system: Huh-7; assay: Induction of apoptosis in human HuH7 negative EpCAM/CD133 cells assessed as change in cell morphology at 0.1 to 10 uM measured after 48 hrs by 2D microscopic analysis; format: functional, cell-based
[28] = organism: Homo sapiens; assay: Inhibition of class 1/2 HDAC in human HuH7 negative EpCAM/CD133 cells nuclear extract at 0.1 to 81 uM after 24 hrs by fluorescence based assay

inhibition [4]: inactive | inhibition [16]: Dose-dependent effect | inhibition [19]: inactive | inhibition [24]: Active | inhibition [25]: Active | Activity [26]: Active | Activity [28]: inactive
SMILES: Cc1ccc([C@H]2CC=CC(=O)O2)c2ccccc12
IC50 [1]: 1.25 µM | IC50 [2]: 10 µM | IC50 [3]: 10 µM | IC50 [5]: 1.25 µM | Activity [6]: Active | Activity [7]: Active | Activity [8]: Active | Activity [9]: Dose-dependent effect | Activity [10]: Active | Activity [11]: Active | Activity [12]: Active | Activity [13]: Active | Activity [14]: Active | Activity [15]: Active | inhibition [17]: 35 to 40% | inhibition [18]: Active | Activity [20]: Active | Activity [21]: Dose-dependent effect | Activity [22]: Active | fold change (FC) [23]: 2 | Activity [27]: Active

— ChEMBL document CHEMBL4359853, “Antiproliferative activity of (R)-4'-methylklavuzon on hepatocellular carcinoma cells and EpCAM+/CD133+ cancer stem cells via SIRT1 and Exportin-1 (CRM1) inhibition” (Eur J Med Chem, 2019)
